Where two headings read alike, the source gives them in different places.
How the values were obtained:
[1] = human volunteer, 0.3 mA/cm^2, 5.5 hours, 15 min samples, food ingested
Method: The distance between the chambers was approximately 8 cm.
The anode was positioned in one of the cells, which was filled with a solution containing a 10 mM Tris buffer pH 8.5+100 mM NaCl.
The other (collection) chamber contained the cathode submerged in a 10 mM Tris buffer at pH 8.5.
The two electrodes were connected to a power supply (Phoresor II Auto, lomed, USA) and a current of 0.6 mA (0.3 mA/cm^2) was passed between them for a total of 5.5 hours.
The entire contents of the cathode solution were withdrawn every 15 minutes and the chamber was then refilled with fresh buffer.
Glucose in each iontophoretic sample was analyzed by high-performance anion-exchange chromatography with pulsed amperometric detection.

[2] = In vitro reverse iontophoretic extraction of mannitol and sodium (Example 3, second experiment)
Method: In a second experiment, performed under identical conditions to the first (see FIG. 11), mannitol concentration was 5 mM for the first three hours of experiment, it was then reduced to 3 mM for a subsequent period of one hour and then increased to 10 mM for a subsequent period of one hour.
(§1) During the first 3-hour period, the entire content of the cathode solution was withdrawn every 60 minutes and the chamber was refilled with fresh buffer.
During the second 1-hour period, the 5 mM mannitol donor solution was replaced with 3 mM mannitol, and the cathodal chamber was then sampled every 30 minutes.
During the third 1-hour period, the 3 mM mannitol donor solution was replaced with 10 mM mannitol, and the cathodal chamber was then sampled every 30 minutes.

[3] = In vitro reverse iontophoretic extraction of mannitol and sodium (Example 3, first experiment)
Method: The anode was placed in the sub-dermal, “donor” chamber, which contained a physiological pH 7.4 buffer (25 mM Tris/TrisHCl+133 mM NaCl) to which the analyte mannitol was added.
In a first experiment, mannitol concentration was 5 mM for the first three hours of experiment and was then increased to 10 mM for a subsequent period of three hours.
(§2) To facilitate the analytical chemistry, the donor solutions were spiked with ^14C-labeled mannitol.
The cathodal (collection) chamber, which contacted the outer surface of the skin contained a 25 mM Tris/TrisHCl buffer at pH 7.4.
as §1
During the second 3-hour period, the 5 mM mannitol donor solution was replaced with 10 mM mannitol, and the cathodal chamber was then sampled every 30 minutes.

[4] = In vitro reverse iontophoretic extraction of mannitol and sodium with varied sodium level (Example 4)
Method: The anode was placed in the sub-dermal, “donor” chamber, which contained a physiological pH 7.4 buffer (25 mM Tris/TrisHCl+4 mM KCl).
Both the concentration of the analyte of interest and the internal standard were modified during the experiment.
as §2
(§3) The cathodal (collection) chamber, which contacted the outer surface of the skin, contained a 25 mM Tris/TrisHCl buffer at pH 7.4.
as §1
During the final 1-hour period, the donor solution was replaced with 5 mM mannitol/ 133 mM NaCl, and the cathodal chamber was then sampled every 30 minutes.

[5] = in vivo, 4 mA for 5 minutes, 4.5 cm^2, lithium nitrate electrolyte; cited from earlier work
[6] = In vitro reverse iontophoretic extraction of glucose and sodium (Example 5); type: in vitro ADME, pig; conditions: subdermal glucose 10 mM
Method: The anode was placed in the sub-dermal, “donor” chamber, which contained a physiological pH 7.4 buffer (25 mM Tris/TrisHCl+133 mM NaCl) to which the analyte glucose was added at a concentration of 10 mM.
To facilitate the analytical chemistry, the donor solutions were spiked with tritiated glucose.
as §3
The experimental design was identical to that in FIG. 11, with the exception that glucose spiked with tritiated glucose replaced mannitol spiked with ^14C-labeled mannitol.
During this period, the entire content of the cathode solution was withdrawn every 60 minutes and the chamber was refilled with fresh buffer.

[7] = subdermal lactate 1.74 mM, ammonium 1.56 mM
Method: Experiments were performed in specially-designed iontophoresis diffusion cells (Laboratory Glass Apparatus, Berkeley, Calif., USA) as represented in FIG. 7.
The anodal and cathodal chambers contacted the outer surface of the skin and contained the receptor (collection) media, respectively, 80 mM Tris/TrisHCl and 25 mM Tris+34 mM Mops (both buffered to pH 7.4).
Dermatomed pig-ear skin was clamped between the two halves of the iontophoresis cell and each chamber was filled with the appropriate solution.
The sub-dermal chamber was filled with the “donor solution which was perfused continuously at 2-3 mL/hour by means of a peristaltic pump.
A current of 0.4 mA (0.5 mA/cm^2) was passed for a total of 5 hours between the Ag/AgCl electrodes which were inserted into the anodal and cathodal chambers.
Every hour, the entire anode and cathode solutions were withdrawn and the chambers were refilled with fresh buffer.

[8] = subdermal mannitol 5 mM, 60 min
[9] = subdermal mannitol 5 mM, 120 min
[10] = subdermal mannitol 5 mM, 180 min
[11] = subdermal mannitol 10 mM, 270 min
[12] = subdermal mannitol 10 mM, 300 min

SMILES: [Na+] [Na^+, sodium]
- Iontophoretically extracted flux over the experiment [1]: remained effectively constant
- Sodium^+ flux ([2]; subdermal mannitol 3 mM, 210 min): 10.9 ± 0.7 μmol · h^−1 · cm^−2
- Sodium^+ flux ([2]; subdermal mannitol 3 mM, 240 min): 9.7 ± 0.5 μmol · h^−1 · cm^−2
- Sodium^+ flux [2, 8]: 8.8 ± 0.7 μmol · h^−1 · cm^−2
- Sodium^+ flux [2, 9]: 10.2 ± 0.7 μmol · h^−1 · cm^−2
- Sodium^+ flux [2, 10]: 10.4 ± 0.7 μmol · h^−1 · cm^−2
- Sodium^+ flux [2, 11]: 9.4 ± 0.6 μmol · h^−1 · cm^−2
- Sodium^+ flux [2, 12]: 9.3 ± 0.4 μmol · h^−1 · cm^−2
- Sodium^+ flux [3, 8]: 7.9 ± 0.5 μmol · h^−1 · cm^−2
- Sodium^+ flux [3, 9]: 9.7 ± 0.6 μmol · h^−1 · cm^−2
- Sodium^+ flux [3, 10]: 10.1 ± 0.4 μmol · h^−1 · cm^−2
- Sodium^+ flux ([3]; subdermal mannitol 10 mM, 210 min): 10.3 ± 0.5 μmol · h^−1 · cm^−2
- Sodium^+ flux ([3]; subdermal mannitol 10 mM, 240 min): 10.4 ± 0.6 μmol · h^−1 · cm^−2
- Sodium^+ flux [3, 11]: 10.3 ± 0.4 μmol · h^−1 · cm^−2
- Sodium^+ flux [3, 12]: 10.6 ± 0.3 μmol · h^−1 · cm^−2
- Sodium^+ flux ([3]; subdermal mannitol 10 mM, 330 min): 10.7 ± 0.3 μmol · h^−1 · cm^−2
- Sodium^+ flux ([3]; subdermal mannitol 10 mM, 360 min): 10.5 ± 0.6 μmol · h^−1 · cm^−2
- Sodium^+ flux ([4]; subdermal [Mannitol]/[Na^+] 5/133 mM (last hour), 330 min): 11.2 ± 1.2 μmol · h^−1 · cm^−2
- Sodium^+ flux ([4]; subdermal [Mannitol]/[Na^+] 5/133 mM (last hour), 360 min): 11.4 ± 0.3 μmol · h^−1 · cm^−2
- Sodium^+ flux ([4]; subdermal [Mannitol]/[Na^+] 5/133 mM, 60 min): 8.4 ± 0.8 μmol · h^−1 · cm^−2
- Sodium^+ flux ([4]; subdermal [Mannitol]/[Na^+] 5/133 mM, 120 min): 10.7 ± 0.4 μmol · h^−1 · cm^−2
- Sodium^+ flux ([4]; subdermal [Mannitol]/[Na^+] 5/133 mM, 180 min): 11.0 ± 0.3 μmol · h^−1 · cm^−2
- Concentration in the cathode chamber after current passage [5]: ~35 μEq/L
- Sodium^+ flux ([6]; 60 min): 8.7 ± 0.6 μmol · h^−1 · cm^−2
- Sodium^+ flux ([6]; 120 min): 9.8 ± 0.4 μmol · h^−1 · cm^−2
- Sodium^+ flux ([6]; 180 min): 10.1 ± 0.3 μmol · h^−1 · cm^−2
- Sodium^+ flux ([6]; 240 min): 10.0 ± 0.3 μmol · h^−1 · cm^−2
- Sodium^+ flux ([6]; 300 min): 10.2 ± 0.3 μmol · h^−1 · cm^−2
- Sodium^+ flux ([6]; 360 min): 10.2 ± 0.3 μmol · h^−1 · cm^−2
- Deduced transport number (×100) ([7]; 3 h): 67.72 ± 7.98 ×100
- Deduced transport number (×100) ([7]; 5 h): 72.07 ± 1.07 ×100
